Measurements as given in ChEMBL document CHEMBL5236637, “Expanding the Chemical Space of Drug-like Passerini Compounds: Can α-Acyloxy Carboxamides Be Considered Hard Drugs?” (ACS Med Chem Lett, 2022).

How the values were obtained:
Pseudomonas aeruginosa = test: Antibacterial activity against Pseudomonas aeruginosa ATCC 9027 assessed inhibition zone at 1 mg/ml preincubated at room temperature for 1 hr and measured after 24 hrs by agar well-diffusion method; assay type: functional; conditions: time 25.0 hrs
[1] = Hydrolytic stability in mouse liver microsomes assessed as esterase-mediated compound hydrolysis by measuring residual substrate activity incubated for 30 mins by LC-HRMS analysis; assay type: ADME, Microsome; conditions: for Stability: microsomes, 0.5 h

Molecule | Stability [1] | further results
GENTAMICIN |  | inhibition zone (IZ) (Pseudomonas aeruginosa): 22.3 mm
CC(C)(C)NC(=O)COC(=O)c1ccccc1-c1ccccc1 |  | remaining at 0.5 h ([1]; liver microsomes, read-out: Stability): 81%
COC(=O)c1ccccc1 [METHYL BENZOATE] | Unstable | 
COC(=O)c1c(C)cccc1C | Stable | 
